Results on 3 molecules are retold here after patent US6232345A, “Cerebral function improving agents” (Shimizu Pharmaceutical Co., Ltd., priority 1995, dated 2001).

“And” between values parts separate entries of the source, which are not always exact repeats. Equal entries are not always repeated. Where two headings read alike, the source gives them in different places.

For data set [1], the system named is cerebral ischemia model (BLCL). In words: Cerebral ATP and lactate levels in rats with BLCL (Example 6). Format: in vivo, male Wistar rats. From the text: (§1) Rats were operated on under anesthesia which was introduced with ether and maintained by inhalation of a mixture of isoflurane/nitrous oxide/oxygen (0.5:70:30). A midline incision was made in the neck and the connective tissue was carefully dissected to avoid injury to the vagus nerve while exposing the bilateral common carotid arteries.
For test drug administration, the right external jugular vein was cannulated and the other end of the cannula was led out through the back of the animal. Then the common carotid artery was ligated at two points (head side and heart side) and severed between the two ligatures.
The level of significance was set at p<0.05.

The subject of data set [2] is Wistar or SD rats. In words: 2-week repeated dose toxicity study (Example 8). It is filed as in vivo, male Wistar or SD rats. The following applies: 500 mg/kg-2000 mg/kg, oral or intravenous, 2 weeks. From the text:
(2) BHBNa was repeatedly administered orally or intravenously to male Wistar or SD rats for 2 weeks.

For data set [3], the system named is cerebral edema induced by ligation and severing of the bilateral common carotid arteries. In words: Cerebral edema suppressing effect: cerebral water content after ligation and severing of the bilateral common carotid arteries (Examples 1-3). It is filed as in vivo, male Wistar rats.
Excerpt: as §1
For test drug administration, the right external jugular vein was cannulated and the other end of the cannula was led out through the back of the animal. Then the common carotid artery was ligated at two points (head side and heart side) and severed between the two ligatures. […]
In sham-operated rats, the bilateral common carotid arteries were exposed in the same way and the skin incision was closed without arterial ligation and severing.
On completion of administration, each rat was decapitated, and the whole brain was isolated immediately. After removal of the cerebellum and the medulla oblongata, the wet weight of the cerebrum was measured. […] The cerebral water content was calculated by using the following formula:
Cerebral water content (%)=(wet weight of the cerebrum-dry weight of the cerebrum)/wet weight of the cerebrum×100. […]

Data set [4] concerns Wistar or SD rats. The data set can be described thus: Single dose toxicity study (Example 8). Format: in vivo, Wistar or SD rats of both sexes. The following applies: 2000 mg/kg, oral or intravenous. How it is done:
(1) BHBNa was orally or intravenously administered to Wistar or SD rats of both sexes at a single dose of 2000 mg/kg.

In data set [5] the test system is middle cerebral artery occlusion/reperfusion model. In words: Cerebral infarction reducing effect: middle cerebral artery occlusion/reperfusion model (Example 7). It is filed as in vivo, male Wistar rats.
Procedure: Male Wistar rats aged 8 weeks (Charles River Japan, Inc.) were used in the study. […] They were fed a pellet diet (MF, Oriental Yeast Co., Ltd.) and tap water ad libitum.
Exactly 0.2 g of BHBNa was weighed and dissolved in distilled water for injection to make up a final volume of 10 ml. To 9 ml of this solution, physiological saline was added to make up 30 ml.
Under ether anesthesia, a midline incision was made in the neck. The incision reached the right carotid bifurcation while avoiding injury to the vagus nerve. Around the bifurcation, the common carotid artery and the external carotid artery were separated from surrounding connective tissue and adipose tissue. […] The external carotid artery was then double ligated with 5-0 silk and cut In addition, the right internal carotid artery was dissected out from the surrounding connective tissue to expose the pterygopalatine artery. The external carotid artery was incised, and an embolizing thread was inserted via this incision to a distance of 21 mm into the internal carotid artery. The tip of the thread went beyond the origin of the middle cerebral artery and entered the anterior cerebral artery by about 1-2 mm, so that the middle cerebral artery was occluded by the central portion of the thread.
In sham-operated rats, the skin incision was closed without inserting any embolizing thread into the internal carotid artery. The rats were then maintained until the scheduled time of sacrifice.
After the middle cerebral artery was occluded with an embolizing thread for 2 hours, the thread was removed under ether anesthesia to allow reperfusion.
Immediately after insertion of the embolizing thread, the rats were given a continuous infusion of physiological saline or 0.6% BHBNa solution via a cannula inserted into a femoral vein on the previous day. Administration was performed at a rate of 5 ml/kg/hr using an infusion pump and was continued until the scheduled time of sacrifice (24 hours after reperfusion).
Each rat was sacrificed at 24 hours after reperfusion. The cerebrum was isolated, and cut into 2 mm coronal sections by using a Brain Slicer (MUROMACHI KIKAI Co., Ltd.) from a point 7 mm behind the edge of the forebrain to the interauricular line (telencephalon). The brain sections were stained to detect normal mitochondria by total immersion for 30 min in a 2% solution of 2,3,5-triphenyltetrazolium chloride (TTC) in physiological saline. […]
Photographs of the TTC-stained coronal sections of the cerebrum were scanned by using an film scanner and the data were processed with image analyzing software (NIH Image). The percent infarcted area (mitochondria death) on each cerebral section was calculated from the total area of the unstained regions relative to the entire area of the section.
The next data set has as its system KCN-induced death. Format: in vivo, male Wistar rats. The following applies: for survival time after KCN: KCN 3 mg/kg, mean ± S.E.
In a further data set the test system is normal rats without BLCL. The data set can be described thus: Cerebral ATP and lactate levels in normal rats without BLCL (Example 6). The following applies: continuous infusion for 3 hours. It is filed as in vivo, male Wistar rats. The procedure: Male Wistar rats (Japan S.L.C., Ltd.) were used in the study. The animals were maintained at 23±3° C. and 55±15% humidity with lights on for 12 hours daily (from 7:00 to 19:00). They were fed a pellet diet (MF, Oriental Yeast Co., Ltd.) and tap water ad libitum. Their weight ranged from 161.7 to 249.0 g at the time of the study.
Exactly 0.2 g of BHBNa was weighed and dissolved in distilled water for injection to make a final volume of 10 ml. To 9 ml of this solution, physiological saline was added to make up 30 ml. The 0.6% BHBNa solution thus obtained was sterilized by filtration through DISMIC-25CS ([…], ADVANTEC Toyo) prior to use.
After 3 hours of cerebral ischemia, the head of each rat was irradiated with microwaves (5 kW) for 2 seconds using a microwave applicator (TMW6402C, Toshiba) to terminate all enzyme reactions and the production/degradation of metabolites in the brain tissue. […] The weight of the cerebrum was calculated from the difference of the weight of the test tube measured as above.
The cerebral ATP level was determined by an enzymatic method (the luciferin-luciferase method) by using Lumat LB9507 (EG&G BERTHOLD). The data obtained were expressed as μmoles/wet weight g.
The cerebral lactate level was determined by an enzymatic method (lactate dehydrogenase method) by using Determiner LA (Kyowa Medics). The data obtained were expressed as μmoles/wet weight g. […]

The test system of data set [6] is bilateral common carotid artery ligation (BLCL). In words: Cerebral metabolic activation: cerebral water and electrolyte content in rats with bilateral common carotid artery ligation (Example 5). Format: in vivo, male Wistar rats. The following applies: 25 mg/kg/hr i.v. infusion for 5 hours, n = 9, mean ± S.E. How it is done: Male Wistar rats purchased from Japan S.L.C., Ltd. were used after a 1-week acclimatization period. The animals were maintained at 23±2° C. and 55±10% humidity with lights on for 12 hours daily (from 7:00 to 19:00). They were fed a pellet diet (MF, Oriental Yeast Co., Ltd.) and tap water ad libitum. Their weight averaged 172.1±6.7 g at the time of the study.
Sodium β-hydroxybutyrate (BHBNa).
The dose of BHBNa tested was 25 mg/kg/hr. The test group was treated with a 20 mM BHBNa solution, while the control group received physiological saline. In both groups, administration was performed at a rate of 10 ml/kg/hr for 5 hours.
Rats were operated on under anesthesia which was introduced with ether and maintained by inhalation of a mixture of isoflurane/nitrous oxide/oxygen (0.5:70:30). A midline incision was made in the neck. The connective tissue was dissected carefully to avoid injury to the vagus nerves while exposing the bilateral common carotid arteries. The right external jugular vein was cannulated and the other end of the cannula was led out through the back. Each of the exposed common carotid arteries was ligated at two points (head side and heart side) and severed between the two ligatures. The skin incision was sutured and each rat was immediately given the test drug or physiological saline by continuous intravenous infusion using an infusion pump at a rate of 10 ml/kg/hr for 5 hours. In sham-operated rats, the bilateral common carotid arteries were exposed in the same way and the skin incision was closed without arterial ligation and severing. After completion of administration, each animal was sacrificed by decapitation and the whole brain was immediately isolated. After removal of the cerebellum and the medulla oblongata, the wet weight of the cerebrum was measured. The cerebrum was then dried at 105° C. for 24 hours and the dry weight was measured. The cerebral water content was calculated by using the following formula: […]
Data are expressed as the mean±standard error (S.E.). […]

Data set [7] can be described thus: Stability of test drug and prepared solutions. Format: physicochemical.
In another data set the test system is acute cerebral injury. The following applies: intravenous, after acute cerebral injury; cited from earlier work.
The conditions of data set [8]: cited from earlier work.

In the case of `CC(O)CC(=O)[O-].[Na+]` (stereo not drawn), the “cerebral ATP level” value in data set [1] (3 hours of BLCL, BHBNa 30 mg/kg/hr, mean±S.E., saline 0.52±0.10, sham 1.85±0.13) turned out to be 1.56±0.10 μmoles/wet weight g. The same molecule came in with a cerebral lactate level in data set [1] (3 hours of BLCL, BHBNa 30 mg/kg/hr, mean±S.E., saline 11.39±0.85, sham 0.61±0.12) of 1.36±0.17 μmoles/wet weight g. Moreover, in the data set with Wistar or SD rats [2], the repeated dose toxicity entry is listed as “survived without any abnormal findings”. Moreover, in [3] (FIG. 1, i.v. infusion for 5 hours), the “relation of cerebral water content to dose” value was “related to the dose”. Moreover, in [3] (by dose, i.v. infusion 10 ml/kg/hr for 5 hours), the “statistical significance of lower cerebral water content vs. physiological saline group” value is on record as “statistically significant (p<0.01) at doses of 5 mM or more”. For the same molecule, the “cerebral water content vs. physiological saline group” value in data set [3] (sodium β-hydroxybutyrate 3.1-400 mg/kg/hr (2.5-320 mM, 10 ml/kg/hr) i.v. infusion for 5 hours, FIG. 1) is recorded as “lower than in the physiological saline group”. Further, the single dose toxicity entry with Wistar or SD rats [4] is “survived without any abnormal findings”. For the same molecule, in data set [5] (30 mg/kg/hr continuous infusion), the “localization of infarct foci” value is “Most infarct foci were localized in the central ischemic zone and few extended to the surrounding regions”. The Infarction % in data set [5] (30 mg/kg/hr i.v. infusion from arterial occlusion (2 hours) to 24 hours after reperfusion, n = 4, saline 35.18±2.69%, listed as BHBNa) is 18.99% and 18.99 ±1.59%. Moreover, the “survival time after KCN” value with KCN-induced death (50 mg/kg/hr for 1 hour i.v., saline 44.6±1.6 sec, FIG. 2) was found to be 58.8 ± 2.4 s; in the data set on KCN-induced death (100 mg/kg/hr for 1 hour i.v. (duration comparison), FIG. 3) it was 58.2 ± 2.2 s; in the data set on KCN-induced death (100 mg/kg/hr for 1 hour i.v., saline 44.6±1.6 sec, FIG. 2) it was 58.8 ± 1.2 s; with KCN-induced death (100 mg/kg/hr for 3 hours i.v., FIG. 3) it was 61.0 ± 1.6 s. Also, in the data set with normal rats without BLCL, the “cerebral ATP level in normal rats” value is listed as “no significant effect”. Besides, the “cerebral lactate level in normal rats” value with normal rats without BLCL is “no significant effect”. In addition, in data set [6] (P < 0.01 vs. physiological saline (81.96 ± 0.21)), the Cerebral water content was found to be 79.50 ± 0.09%. Further, the “Na^+ content” value in data set [6] (cerebral, P < 0.01 vs. physiological saline (304.39 ± 12.83)) worked out at 269.74 ± 15.98 mEq/kg dry weight. For the same molecule, the “K^+ content” value in [6] (cerebral, physiological saline 405.99 ± 20.96, not significantly different) is 420.42 ± 5.76 mEq/kg dry weight. Further, the “stability of prepared solution” value in data set [7] was “at least 1 week”. Further, the stability on storage in [7] was 5 months. The “changes in quality of the lot used in the study” value in [7] (tested after completion of the study) is recorded as “no changes in quality”.

Consider `COC(=O)CC(C)O` (stereo not drawn) [methyl β-hydroxybutyrate], for which the “cerebral water content vs. physiological saline-treated group” value in data set [3] (parenteral solution with methyl β-hydroxybutyrate 2.42 g/l, NaCl, KCl, glucose) is given as “lower than in the physiological saline-treated group”.

As to `CC(O)CC(=O)O` (stereo not drawn) [β-hydroxybutyric acid], the “cerebral ATP levels (summary)” value in data set [1] (ligation of bilateral common carotid arteries) is given as “high cerebral ATP levels were maintained”. For the same molecule, in the data set on acute cerebral injury, the “ketone level in the cerebrospinal fluid” value is given as “increased” and the “lactate level in the cerebrospinal fluid” value is on record as “decreased”. In data set [3] (at the doses tested in Example 4 (50 and 100 mg/kg/hr)), the “increase in cerebral water content induced by BLCL for 6 hours” value is recorded as “significantly suppressed”. The “development of cerebral edema (summary)” value in data set [3] (simultaneous intravenous administration, ligation of bilateral common carotid arteries) is reported as “prevented the development of cerebral edema”. The water solubility entry in data set [8] is given as “water-soluble”. The “extent of cerebral infarction (summary)” value in data set [5] (administration during ligation of the middle cerebral artery and subsequent reperfusion) was “markedly reduced”. Moreover, the “survival time after lethal KCN (summary)” value with KCN-induced death (intravenous pretreatment) is on record as “prolonged the survival time”.
